Data taken from article PMC5040747, “Preparation and Evaluation of a Novel Class of Amphiphilic Amines as Antitumor Agents and Nanocarriers for Bioactive Molecules” (Pharmaceutical Research, 2016).
Read-outs that look alike come from different tables or passages of the source.

Tests used:
[1] = Encapsulation of drugs in RC16 micelles; type: physicochemical; settings: drug complexed in RC16 micelles, after dialysis and freeze-drying
Experimental: (§1) Aqueous solutions of RC16 (10 mM, 1 mL) were mixed with ethanol solutions of Doxorubicin, Paclitaxel or Etoposide (1 mM, 1 mL). After stirring 12 h at 25 C the mixtures were dialyzed through 5000 Da MW cutoff dialysis membranes against 100 ml water by changing the external medium every 8 h for 3 days. The RC16-drug complex collected after dialysis was freeze-dried and the solid residue obtained was spectrophotometrically analysed to estimate the percentage of drug in the final product. The anticancer activity of each complexed drug was evaluated in CHLA-20 as the difference between the activity of the complex and the pure RC16 at the same concentration of the complex.

[2] = system: CHLA-20 cells; test: Cell killing activity of drugs complexed with RC16 (MTT); type: cell-based, human; settings: CHLA-20, free drug at concentration corresponding to that present in the complex, 48 h, percent of untreated cells
Experimental: as §1

[3] = system: A673; test: MTT cell proliferation assay, A673; type: cell-based; settings: Homo sapiens, A673, Ewing's Sarcoma, read-out: Cell killing activity IC50
Experimental: (§2) Cells were plated in 96-well tissue culture plates at a density of 1 × 10^3 cells/well, allowed to attach 24 h, and then left untreated or treated with growth medium containing different concentrations of the tested RCn compounds previously dissolved in PBS. After different time periods the cell vitality was determined by MTT assay according to the manufacture’s instruction (Promega). Results are reported as the micromolar concentration of RCn reducing cell survival to 50% (IC50).

[4] = system: Ramos; test: MTT cell proliferation assay, Ramos; type: cell-based; settings: Homo sapiens, Lymphoma, read-out: Cell killing activity IC50
Experimental: as §2

[5] = system: Rh41; test: MTT cell proliferation assay, Rh41; type: cell-based; settings: Homo sapiens, Rh41, Rhabdomyosarcoma, read-out: Cell killing activity IC50
Experimental: as §2

[6] = system: 143.98.2; test: MTT cell proliferation assay, 143.98.2; type: cell-based; settings: Homo sapiens, 143.98.2, Osteosarcoma, read-out: Cell killing activity IC50
Experimental: as §2

[7] = system: S462TY; test: MTT cell proliferation assay, S462TY; type: cell-based; settings: Homo sapiens, Malignant Peripheral Nerve Sheath Tumor, read-out: Cell killing activity IC50
Experimental: as §2

[8] = system: SK-N-AS; test: MTT cell proliferation assay, SK-N-AS; type: cell-based; settings: Homo sapiens, Neuroblastoma, read-out: Cell killing activity IC50
Experimental: as §2

Encapsulation efficiency (weight percentage of drug in the final complex) [1] | Structure (SMILES) | Cell viability, % CTR (free drug) [2] | IC50 ([3]; 24 h) | IC50 ([3]; 48 h) | IC50 ([4]; 24 h) | IC50 ([4]; 48 h) | IC50 ([5]; 24 h) | IC50 ([5]; 48 h) | IC50 ([6]; 24 h) | IC50 ([6]; 48 h) | IC50 ([7]; 24 h) | IC50 ([7]; 48 h) | IC50 ([8]; 24 h) | IC50 ([8]; 48 h)
2.3 ± 0.78% | COc1cccc2c1C(=O)c1c(O)c3c(c(O)c1C2=O)C[C@@](O)(C(=O)CO)C[C@@H]3O[C@H]1C[C@H](N)[C@H](O)[C@H](C)O1 [DOXO, Doxorubicin] | 27.62 ± 0.55 % CTR |  |  |  |  |  |  |  |  |  |  |  | 
1.0 ± 0.59% | COc1cc([C@@H]2c3cc4c(cc3[C@@H](O[C@@H]3O[C@@H]5CO[C@@H](C)O[C@H]5[C@H](O)[C@H]3O)[C@H]3COC(=O)[C@H]23)OCO4)cc(OC)c1O [ETO, Etoposide] | 65.80 ± 5.76 % CTR |  |  |  |  |  |  |  |  |  |  |  | 
1.8 ± 0.73% | CC(=O)O[C@H]1C(=O)[C@@]2(C)[C@H]([C@H](OC(=O)c3ccccc3)[C@]3(O)C[C@H](OC(=O)[C@H](O)[C@@H](NC(=O)c4ccccc4)c4ccccc4)C(C)=C1C3(C)C)[C@]1(OC(C)=O)CO[C@@H]1C[C@@H]2O [PTX, Paclitaxel] | 56.93 ± 4.61 % CTR |  |  |  |  |  |  |  |  |  |  |  | 
 | CCCCCC1CN2CCCN3CCCCCC132 (stereo not drawn) [RC7, 2-pentyl-4,8-diazatricyclo[6.5.0.0^1,^4]tridecane] |  | 5730 nM | 4110 nM | 4550 nM | 3120 nM | 5780 nM | 4010 nM | 4510 nM | 3780 nM | 5620 nM | 3900 nM | 5210 nM | 3430 nM
 | CCCCCCCCC1CN2CCCN3CCCCCC132 (stereo not drawn) [RC10, 2-octyl-4,8-diazatricyclo[6.5.0.0^1,^4]tridecane] |  | 2600 nM | 2020 nM | 2100 nM | 1030 nM | 2850 nM | 2030 nM | 2550 nM | 1680 nM | 2390 nM | 1780 nM | 2140 nM | 1560 nM
 | CCCCCCCCCCC1CN2CCCN3CCCCCC132 (stereo not drawn) [RC12, 2-decyl-4,8-diazatricyclo[6.5.0.0^1,^4]tridecane] |  | 1820 nM | 1650 nM | 1180 nM | 740 nM | 1750 nM | 1160 nM | 1980 nM | 1240 nM | 2000 nM | 1090 nM | 1870 nM | 710 nM
 | CCCCCCCCCCCCC1CN2CCCN3CCCCCC132 (stereo not drawn) [RC14, 2-dodecyl-4,8-diazatricyclo[6.5.0.0^1,^4]tridecane] |  | 1270 nM | 1130 nM | 960 nM | 220 nM | 1360 nM | 970 nM | 1310 nM | 780 nM | 1810 nM | 950 nM | 1200 nM | 630 nM
 | CCCCCCCCCCCCCCCCC1CN2CCCN3CCCCCC132 (stereo not drawn) [RC18, 2-hexadecyl-4,8-diazatricyclo[6.5.0.0^1,^4]tridecane] |  | 1030 nM | 980 nM | 830 nM | 170 nM | 1010 nM | 820 nM | 920 nM | 650 nM | 1670 nM | 880 nM | 1230 nM | 750 nM
 | CCCCCCCCCCCCCCCCCCC1CN2CCCN3CCCCCC132 (stereo not drawn) [RC20, 2-octadecyl-4,8-diazatricyclo[6.5.0.0^1,^4]tridecane] |  | 1220 nM | 1350 nM | 970 nM | 200 nM | 1680 nM | 1120 nM | 1090 nM | 830 nM | 1830 nM | 1160 nM | 1600 nM | 900 nM
